Laboratory results as given in patent publication US10577383B2, “Macrocyclic inhibitors of myeloperoxidase” (BRISTOL-MYERS SQUIBB COMPANY, priority 2016, dated 2020).

Assays:
[1] = target: T1, myeloperoxidase (Homo sapiens (Human), UniProt P05164); test: MPO Peroxidation Assay (Amplex Red Assay); assay type: biochemical; conditions: MPO peroxidation activity, 100 mM KPi (pH 7.4), ten minute preincubation; potency ranges defined in nM
Method: MPO Peroxidation Assay (Amplex Red Assay)
MPO peroxidation activity was measured in 100 mM KPi (pH 7.4) by utilizing the non-fluorescent reagent Amplex Red (Invitrogen Cat. #A12222) which can be oxidized to the highly fluorescent resorufin. Amplex Red is oxidized by the peroxidase action of MPO to resorufin. Reactions were carried out in 50 μL total volume by adding a 25 μL mixture of 200 pM myeloperoxidase and 40 nM H2O2 (Sigma #349887) to 100 nL inhibitor in 100% DMSO in a 384 well Perkin Elmer Optiplate. Enzyme and compound were preincubated for ten minutes at room temperature.
After the ten minute preincubation, 25 μL of an Amplex Red mixture containing 200 μM Amplex Red and 10 mM H2O2 was added to the plate. Kinetic determinations were carried out immediately on a Perkin Elmer Envision (15 minute kinetic read, Ex: 535 nm, Em: 590 nm).
(§1) IC50 values were calculated by determining the slope of the linear portion of the kinetic trace (180-540 secs), and using that calculated slope to determine % inhibition occurring at each concentration of inhibitor using the following equation:
(§2) [formula] where A=minimal Y value (activity level of inhibited sample), B=maximal Y value (activity level of uninhibited sample), C=Log IC50, D=Hill Slope, x=concentration of inhibitor. MPO Chlorination Assay (APF Assay) MPO chlorination activity was measured in 100 mM KPi (pH 7.4) by utilizing the non-fluorescent reagent Aminophenyl fluorescein (APF, Invitrogen Cat. #A36003). APF is cleaved by (—OCl) to yield the fluorescent compound fluorescein. Reactions were carried out in 50 μL total volume by adding a 25 μL mixture of 200 pM myeloperoxidase and 120 mM NaCl to 100 nL inhibitor in 100% DMSO in a 384 well, non-binding surface clear bottom plate (Corning #3655). Enzyme, inhibitor, and chloride were preincubated for ten minutes at room temperature.

[2] = target: T1, myeloperoxidase; test: MPO Chlorination Assay (APF Assay); assay type: biochemical; conditions: MPO chlorination activity, 100 mM KPi (pH 7.4), 120 mM NaCl, ten minute preincubation; potency ranges defined in nM
Method: as §2
After the ten minute preincubation, 25 μL of an APF mixture containing […], 120 mM NaCl and 10 μM H2O2 was added to the plate using the internal dispensing system of a Hammatsu FDSS 6000. Kinetic determinations were carried out immediately on the FDSS 6000 (3 minute kinetic read, 1 read every second, ex: 485 nm, em: 535 nm). IC50 values for inhibitors were calculated by taking the slope of the linear portion of the kinetic measurement (20 seconds to 80-120 secs).
as §1
[formula] where A=minimal Y value (activity level of inhibited sample), B=maximal Y value (activity level of uninhibited sample), C=Log IC50, D=Hill Slope, x=concentration of inhibitor. EPX Bromination Assay

T1 sequence (P05164 49-745): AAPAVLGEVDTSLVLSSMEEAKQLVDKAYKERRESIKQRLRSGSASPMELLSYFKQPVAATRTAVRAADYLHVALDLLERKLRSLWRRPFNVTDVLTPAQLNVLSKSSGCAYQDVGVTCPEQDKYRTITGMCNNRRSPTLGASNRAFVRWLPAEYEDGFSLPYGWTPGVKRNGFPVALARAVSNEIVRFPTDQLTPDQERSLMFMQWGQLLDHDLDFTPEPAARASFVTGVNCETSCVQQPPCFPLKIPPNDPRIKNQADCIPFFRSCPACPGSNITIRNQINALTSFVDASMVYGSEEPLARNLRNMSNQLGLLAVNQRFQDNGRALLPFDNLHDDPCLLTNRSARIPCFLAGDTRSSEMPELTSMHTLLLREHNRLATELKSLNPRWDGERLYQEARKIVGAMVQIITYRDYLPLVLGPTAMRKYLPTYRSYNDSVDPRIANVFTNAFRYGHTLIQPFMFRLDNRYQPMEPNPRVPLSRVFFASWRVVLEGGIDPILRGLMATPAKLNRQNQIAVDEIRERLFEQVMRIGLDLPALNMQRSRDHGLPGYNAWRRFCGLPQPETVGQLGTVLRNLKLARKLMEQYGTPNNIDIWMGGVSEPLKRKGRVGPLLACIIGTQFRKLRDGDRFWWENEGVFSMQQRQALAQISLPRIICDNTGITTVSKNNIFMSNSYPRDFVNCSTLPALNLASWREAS

Structure (SMILES) | IC50 [1] [nM] | IC50 [2] [nM]
C[C@@H]1Cc2cccc(c2)Oc2cccc(c2)Cn2cc(cn2)C(c2cc(N)nc3[nH]nnc23)CCN1 (stereo partly drawn) [Example 8, 7-[(11R)-11-Methyl-18-oxa-3,4,10-triazatetracyclo[17.3.1.1^3,^6.1^13,^1^7]pentacosa-1(23),4,6(25),13,15,17(24),19,21-octaen-7-yl]-3H-[1,2,3]triazolo[4,5-b]pyridin-5-amine] | 101 to 999 | 1 to 100
Nc1cc(C2CCNCc3cccc(c3)OCc3cccc(c3)Cn3cc2cn3)c2nn[nH]c2n1 (stereo not shown) [Example 9, 7-{17-Oxa-3,4,10-triazatetracyclo[17.3.1.1^3,^6.1^12,^1^6]pentacosa-1(23),4,6(25),12,14,16(24),19,21-octaen-7-yl}-3H-[1,2,3]triazolo[4,5-b]pyridin-5-amine] | 1 to 100 | 1 to 100
C[C@H]1Oc2cccc(c2)Cn2cc(cn2)C(c2cc(N)nc3[nH]nnc23)CCNCc2cccc1c2 (stereo partly drawn) [Example 10, 7-[(17R)-17-Methyl-18-oxa-3,4,10-triazatetracyclo[17.3.1.1^3,^6.1^12,^16]pentacosa-1(23),4,6(25),12,14,16(24),19,21-octaen-7-yl]-3H-[1,2,3]triazolo[4,5-b]pyridin-5-amine] | 101 to 999 | 1 to 100
Nc1cc(C2CCN[C@H](CO)Cc3cccc(c3)Oc3cccc(c3)Cn3cc2cn3)c2nn[nH]c2n1 (stereo partly drawn) [Example 11, [(11S)-7-{5-Amino-3H-[1,2,3]triazolo[4,5-b]pyridin-7-yl}-18-oxa-3,4,10-triazatetracyclo[17.3.1.1^3,^6.1^13,^1^7]pentacosa-1(23),4,6(25),13,15,17(24),19,21-octaen-11-yl]methanol] | 101 to 999 | 1 to 100
COc1ccc2cc1OCc1cccc(c1)Cn1cc(cn1)C(c1cc(N)nc3[nH]nnc13)CCNC2 (stereo not shown) [Example 13, 7-{15-Methoxy-17-oxa-3,4,10-triazatetracyclo[17.3.1.1^3,^6.1^12,^1^6]pentacosa-1(23),4,6(25),12(24),13,15,19,21-octaen-7-yl}-3H-[1,2,3]triazolo[4,5-b]pyridin-5-amine] | 1000 to 10000 | 101 to 999
Nc1cc(C2CCNCc3ccc(F)c(c3)OCc3cccc(c3)Cn3cc2cn3)c2nn[nH]c2n1 (stereo not shown) [Example 14, 7-{15-Fluoro-17-oxa-3,4,10-triazatetracyclo[17.3.1.1^3,^6.1^12,^1^6]pentacosa-1(23),4,6(25),12(24),13,15,19,21-octaen-7-yl}-3H-[1,2,3]triazolo[4,5-b]pyridin-5-amine] | 1000 to 10000 | 1 to 100
Nc1cc(C2CCNCC3(CC3)COc3cccc(c3)Cn3cc2cn3)c2nn[nH]c2n1 (stereo not shown) [Example 19, 7-{14′-Oxa-3′,4′,10′-triazaspiro[cyclopropane-1,12′-tricyclo[13.3.1.1^3,^6]icosane]-1′(19′),4′,6′(20′),15′,17′-pentaen-7′-yl}-3H-[1,2,3]triazolo[4,5-b]pyridin-5-amine] | 101 to 999 | 1 to 100
Nc1cc(C2CCNCC3(CCCC3)COc3cccc(c3)Cn3cc2cn3)c2nn[nH]c2n1 (stereo not shown) [Example 22, 7-{14′-Oxa-3′,4′,10′-triazaspiro[cyclopentane-1,12′-tricyclo[13.3.1.1^3,^6]icosane]-1′(19′),4′,6′(20′),15′,17′-pentaen-7′-yl}-3H-[1,2,3]triazolo[4,5-b]pyridin-5-amine] | 101 to 999 | 1 to 100
Nc1cc(C2CCNCc3ccc(F)c(c3)COc3ccc(F)c(c3)Cn3cc2cn3)c2nn[nH]c2n1 (stereo not shown) [Example 24, 7-{15,22-Difluoro-18-oxa-3,4,10-triazatetracyclo[17.3.1.1^3,^6.1^12,^1^6]pentacosa-1(23),4,6(25),12,14,16(24),19,21-octaen-7-yl}-3H-[1,2,3]triazolo[4,5-b]pyridin-5-amine] | 101 to 999 | 1 to 100

Results, then the compound that gave them:

IC50 [1] [nM] | IC50 [2] [nM] | Structure (SMILES)
101 to 999 | 101 to 999 | Nc1cc(C2CCNCCc3cccc(c3)Oc3cccc(c3)Cn3cc2cn3)c2nn[nH]c2n1 (single isomer, unassigned) [Example 4, 7-{18-oxa-3,4,10-triazatetracyclo[17.3.1.1^3,^6.1^13,^1^7]pentacosa-1(23),4,6(25),13,15,17(24),19,21-octaen-7-yl}-3H-[1,2,3]triazolo[4,5-b]pyridin-5-amine]
101 to 999 | 1 to 100 | Nc1cc(C2CCNCC3(CC3)COc3cccc(c3)Cn3cc2cn3)c2nn[nH]c2n1 (single isomer, unassigned) [Example 21, 7-{14′-Oxa-3′,4′,10′-triazaspiro[cyclopropane-1,12′-tricyclo[13.3.1.1^3,^6]icosane]-1′(19′),4′,6′(20′),15′,17′-pentaen-7′-yl}-3H-[1,2,3]triazolo[4,5-b]pyridin-5-amine]
101 to 999 | 1 to 100 | Nc1cc(C2CCNCc3cccc(c3)Oc3cccc(c3)Cn3cc2cn3)c2nn[nH]c2n1 (stereo not shown) [Example 1, 7-{17-oxa-3,4,10-triazatetracyclo[16.3.1.1^3,^6.1^12,^1^6]tetracosa-1(22),4,6(24),12,14,16(23),18,20-octaen-7-yl}-3H-[1,2,3]triazolo[4,5-b]pyridin-5-amine]
1 to 100 | 1 to 100 | Nc1cc(C2CCNCCc3cccc(c3)Oc3cccc(c3)Cn3cc2cn3)c2nn[nH]c2n1 (stereo not shown) [Example 3, 7-{18-oxa-3,4,10-triazatetracyclo[17.3.1.1^3,^6.1^13,^1^7]pentacosa-1(23),4,6(25),13,15,17(24),19,21-octaen-7-yl}-3H-[1,2,3]triazolo[4,5-b]pyridin-5-amine]
1000 to 10000 | 101 to 999 | CN1CCC(c2cc(N)nc3[nH]nnc23)c2cnn(c2)Cc2cccc(c2)Oc2cccc(c2)C1 (stereo not shown) [Example 6, 7-{10-methyl-17-oxa-3,4,10-triazatetracyclo[16.3.1.1^3,^6.1^12,^1^6]tetracosa-1(22),4,6(24),12,14,16(23),18,20-octaen-7-yl}-3H-[1,2,3]triazolo[4,5-b]pyridin-5-amine]
1 to 100 | 1 to 100 | C[C@H]1Cc2cccc(c2)Oc2cccc(c2)Cn2cc(cn2)C(c2cc(N)nc3[nH]nnc23)CCN1 (stereo partly drawn) [Example 7, 7-[(11S)-11-Methyl-18-oxa-3,4,10-triazatetracyclo[17.3.1.1^3,^6.1^13,^1^7]pentacosa-1(23),4,6(25),13,15,17(24),19,21-octaen-7-yl]-3H-[1,2,3]triazolo[4,5-b]pyridin-5-amine]
1 to 100 | 1 to 100 | Nc1cc(C2CCNCc3cc(F)cc(c3)OCc3cccc(c3)Cn3cc2cn3)c2nn[nH]c2n1 (stereo not shown) [Example 12, 7-{14-Fluoro-17-oxa-3,4,10-triazatetracyclo[17.3.1.1^3,^6.1^12,^1^6]pentacosa-1(23),4,6(25),12(24),13,15,19,21-octaen-7-yl}-3H-[1,2,3]triazolo[4,5-b]pyridin-5-amine]
101 to 999 | 1 to 100 | Nc1cc(C2CCNCc3cc(Cl)cc(c3)OCc3cccc(c3)Cn3cc2cn3)c2nn[nH]c2n1 (stereo not shown) [Example 15, 7-{14-Chloro-17-oxa-3,4,10-triazatetracyclo[17.3.1.1^3,^6.1^12,^1^6]pentacosa-1(23),4,6(25),12(24),13,15,19,21-octaen-7-yl}-3H-[1,2,3]triazolo[4,5-b]pyridin-5-amine]
101 to 999 | 1 to 100 | Nc1cc(C2CCNCCc3cccc(c3)OCc3cccc(c3)Cn3cc2cn3)c2nn[nH]c2n1 (stereo not shown) [Example 16, 7-{18-Oxa-3,4,10-triazatetracyclo[18.3.1.1^3,^6.1^13,^1^7]hexacosa-1(24),4,6(26),13(25),14,16,20,22-octaen-7-yl}-3H-[1,2,3]triazolo[4,5-b]pyridin-5-amine]
1000 to 10000 | 101 to 999 | Nc1cc(C2CCNCCCOc3cccc(c3)Cn3cc2cn3)c2nn[nH]c2n1 (stereo not shown) [Example 17, 7-{14-Oxa-3,4,10-triazatricyclo[13.3.1.1^3,^6]icosa-1(19),4,6(20),15,17-pentaen-7-yl}-3H-[1,2,3]triazolo[4,5-b]pyridin-5-amine]
1000 to 10000 | 101 to 999 | Nc1cc(C2CCNCc3cc(cc(OC(F)(F)F)c3)COc3cccc(c3)Cn3cc2cn3)c2nn[nH]c2n1 (stereo not shown) [Example 23, 7-[14-(Trifluoromethoxy)-18-oxa-3,4,10-triazatetracyclo[17.3.1.1^3,^6.1^12,^1^6]pentacosa-1(23),4,6(25),12,14,16(24),19,21-octaen-7-yl]-3H-[1,2,3]triazolo[4,5-b]pyridin-5-amine]
